Experimental data as given in PMC7044277 (Nature Communications, 2020).
Several values for one entry are separate records, joined by “and”; a condition that tells them apart may be missing. Identical values can stand only once.

Tests used:
Type in all cases: cell-based
Parameters in all cases: GPCRome screening signal at PTGIR / GPCRome screening signal at PTH1R / GPCRome screening signal at PTH2R / GPCRome screening signal at QRFP / GPCRome screening signal at RXFP2 / GPCRome screening signal at RXFP3 / GPCRome screening signal at RXFP4 / GPCRome screening signal at S1PR2 / GPCRome screening signal at S1PR3 / GPCRome screening signal at S1PR4 / GPCRome screening signal at S1PR5 / GPCRome screening signal at SCTR / GPCRome screening signal at SSTR2 / GPCRome screening signal at SSSTR / GPCRome screening signal at SSTR4 / GPCRome screening signal at SSTR5 / GPCRome screening signal at SUCNR1 / GPCRome screening signal at TA1 / GPCRome screening signal at TAAR2 / GPCRome screening signal at TAAR5 / GPCRome screening signal at TAAR6 / GPCRome screening signal at TAAR8 / GPCRome screening signal at TACR1 / GPCRome screening signal at TACR2 / GPCRome screening signal at TACR3 / GPCRome screening signal at TBXA2R / GPCRome screening signal at TSHR / GPCRome screening signal at UTS2R / GPCRome screening signal at VIPR2 / GPCRome screening signal at GPR68 no V2 Tail / GPCRome screening signal at GRM2 / GPCRome screening signal at GRM3: reference not given here
[1] = biological target: 320 non-olfactory GPCRs (Homo sapiens, UniProt P25103); details: receptor TACR1
Chain of 320 non-olfactory GPCRs (Homo sapiens, UniProt P25103) (P25103 whole entry): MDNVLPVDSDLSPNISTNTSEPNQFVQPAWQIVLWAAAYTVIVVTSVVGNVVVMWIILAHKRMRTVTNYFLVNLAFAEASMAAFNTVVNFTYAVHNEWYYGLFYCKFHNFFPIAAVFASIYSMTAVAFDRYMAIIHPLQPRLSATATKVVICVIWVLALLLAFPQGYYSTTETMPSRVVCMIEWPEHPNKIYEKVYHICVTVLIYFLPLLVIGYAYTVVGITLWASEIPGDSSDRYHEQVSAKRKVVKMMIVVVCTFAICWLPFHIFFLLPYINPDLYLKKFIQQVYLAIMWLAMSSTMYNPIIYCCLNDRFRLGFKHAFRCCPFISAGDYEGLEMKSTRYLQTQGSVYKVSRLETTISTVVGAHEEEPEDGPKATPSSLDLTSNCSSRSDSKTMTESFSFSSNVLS

[2] = biological target: 320 non-olfactory GPCRs (Homo sapiens, UniProt P47872); details: receptor SCTR
Chain of 320 non-olfactory GPCRs (Homo sapiens, UniProt P47872) (P47872 23-440): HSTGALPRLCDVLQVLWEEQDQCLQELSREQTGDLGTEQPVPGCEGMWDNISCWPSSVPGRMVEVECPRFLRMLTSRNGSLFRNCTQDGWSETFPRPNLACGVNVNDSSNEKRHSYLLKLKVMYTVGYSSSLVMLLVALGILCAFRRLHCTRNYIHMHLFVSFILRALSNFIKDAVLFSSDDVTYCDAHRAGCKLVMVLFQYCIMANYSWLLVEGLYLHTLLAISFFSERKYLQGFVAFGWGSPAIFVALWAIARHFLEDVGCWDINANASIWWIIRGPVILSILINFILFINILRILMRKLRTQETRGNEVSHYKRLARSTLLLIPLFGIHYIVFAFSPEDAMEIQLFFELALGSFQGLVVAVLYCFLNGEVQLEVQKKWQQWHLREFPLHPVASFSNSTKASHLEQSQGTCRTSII

[3] = biological target: 320 non-olfactory GPCRs (Homo sapiens, UniProt Q03431); details: receptor PTH1R
Chain of 320 non-olfactory GPCRs (Homo sapiens, UniProt Q03431) (Q03431 27-593): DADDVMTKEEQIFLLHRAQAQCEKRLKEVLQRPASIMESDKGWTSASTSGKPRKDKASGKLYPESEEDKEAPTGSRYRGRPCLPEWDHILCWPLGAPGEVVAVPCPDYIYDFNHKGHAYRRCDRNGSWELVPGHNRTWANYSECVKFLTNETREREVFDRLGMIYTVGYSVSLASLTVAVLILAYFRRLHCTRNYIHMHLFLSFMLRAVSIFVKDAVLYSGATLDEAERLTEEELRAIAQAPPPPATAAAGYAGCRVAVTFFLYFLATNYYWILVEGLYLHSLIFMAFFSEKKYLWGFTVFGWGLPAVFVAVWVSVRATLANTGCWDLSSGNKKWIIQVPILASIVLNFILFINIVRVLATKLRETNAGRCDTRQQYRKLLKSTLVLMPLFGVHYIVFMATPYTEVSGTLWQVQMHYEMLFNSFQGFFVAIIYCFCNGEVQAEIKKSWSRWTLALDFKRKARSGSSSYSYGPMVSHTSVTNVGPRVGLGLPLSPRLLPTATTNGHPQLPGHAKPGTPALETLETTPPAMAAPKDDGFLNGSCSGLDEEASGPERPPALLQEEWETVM

[4] = biological target: T1, 320 non-olfactory GPCRs (Homo sapiens, UniProt Q9UKP6); details: receptor UTS2R
T1 construct: expressed in transfected cells; host or cells: HTLA cells
T1 sequence (Q9UKP6 whole entry): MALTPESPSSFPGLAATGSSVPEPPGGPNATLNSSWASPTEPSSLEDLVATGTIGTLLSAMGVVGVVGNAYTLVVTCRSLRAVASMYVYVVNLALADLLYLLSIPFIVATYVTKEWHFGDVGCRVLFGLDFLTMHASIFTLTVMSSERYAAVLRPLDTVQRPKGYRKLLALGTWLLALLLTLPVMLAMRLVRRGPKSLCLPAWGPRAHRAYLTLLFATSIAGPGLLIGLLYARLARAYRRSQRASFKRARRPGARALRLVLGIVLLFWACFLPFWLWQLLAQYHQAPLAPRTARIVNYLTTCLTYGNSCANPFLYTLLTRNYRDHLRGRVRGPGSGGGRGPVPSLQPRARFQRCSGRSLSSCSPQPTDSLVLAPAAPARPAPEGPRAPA

[5] = Fig_5f, single replicate values
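Wherever GPCRome agonism screen response is given: fold over basal response of each receptor without drug.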

Structure (SMILES): CCOc1ccccc1CCC(C)NCC1(O)CCCCC1.Cl (racemic) [Fig_5f]
- GPCRome screening signal at TACR1 [1, 5]: 1.29 and 1.225 and 0.9839 and 1.172
- GPCRome screening signal at SCTR [2, 5]: 1.0412 and 0.8528 and 0.88 and 1.015
- GPCRome screening signal at PTH1R [3, 5]: 2.489 and 1.041 and 1.352 and 1.077
- GPCRome screening signal at UTS2R [4, 5]: 1.327 and 1.1644 and 2.664 and 0.5292

Structure (SMILES): CCOc1cccc2cc(C(C)NCC3(O)CCCCC3)oc12 (centres unmarked) [O4LE6]
- GPCRome agonism screen response ([1]; replicate values, Fig_4g): 1.178 and 0.9848 and 1.177 and 1.1855
- GPCRome agonism screen response ([2]; replicate values, Fig_4g): 0.9841 and 0.1649 and 1.315 and 1.208
- GPCRome agonism screen response ([3]; replicate values, Fig_4g): 0.6677 and 0.9983 and 1.484 and 1.06
- GPCRome agonism screen response ([4]; replicate values, Fig_4g): 1.786 and 2.312 and 1.032
